Assay results from ChEMBL document CHEMBL1128911 (Bioorg Med Chem Lett, 1996).

What was measured:
Melatonin receptor = format: protein assay, Ovis aries
[1] = biological target: T1, Melatonin receptor (Homo sapiens) (UniProt P48039+P49286); test: Compound was evaluated for agonistic activity against cAMP production stimulated by forskolin; Potential stimulation; format: functional; conditions: Ovis aries; filed as agonist
[2] = biological target: T1, Melatonin receptor (Homo sapiens); test: Binding affinity against ovine pars tuberalis melatonin receptor using 2-[125I]- melatonin radioligand binding assay; format: protein assay; conditions: Ovis aries; target entry is the homologue from another species

Row | Ki (Melatonin receptor) | Activity [1] | KH [2] | KL [2] | Structure (SMILES)
1 | 0.216 nM |  |  |  | CC(=O)NCCc1cccc2ccc3c(c12)CCCO3
2 | 130 nM |  |  |  | CC(=O)NCCc1cccc2ccc3c(c12)C(O)CO3 (stereo not given)
3 | 0.137 nM |  |  |  | CC(=O)NCCc1cccc2ccc3c(c12)C=CCO3
4 | 62.2 nM | Agonist |  |  | CC(=O)NCCC1CCCc2cc3c(cc21)OCCO3 (stereo not given)
5 |  |  | 0.0069 pM | 1.2 nM | CC(=O)NCCc1cccc2ccc3c(c12)CC(C)O3 (stereo not given)
6 | 6.17 nM | Agonist |  |  | CC(=O)NCCC1CCCc2ccc3c(c21)CCCO3 (stereo not given)
7 | 13.9 nM |  |  |  | CC(=O)NCCc1cccc2ccc3c(c12)C(=O)CO3
